Legend:
Test in all cases: relative viability (nuclei count vs DMSO), 5 days (fraction); higher = more cells survive
A549 = test system: A549
In short: (§1)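 One day after seeding in 1536-well plates, lung cancer cell lines were dosed by pin tool. Dosing was either single-drug or a fixed anchor-drug dose plus five library-drug doses (not always all listed) in √10 steps. After 5 days, nuclei were stained in one fix-and-stain step and counted on 4× images, and relative viability is the nuclei count of treated wells over that of vehicle wells, given as the median of duplicate plates.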

Calu-6 = test system: Calu-6
In short: as §1

EBC-1 = test system: EBC-1
In short: as §1

IA-LM = test system: IA-LM
In short: as §1

NCI-H1299 = test system: NCI-H1299
In short: as §1

NCI-H1648 = test system: NCI-H1648
In short: as §1

NCI-H1703 = test system: NCI-H1703
In short: as §1

NCI-H2342 = test system: NCI-H2342
In short: as §1

NCI-H522 = test system: NCI-H522
In short: as §1

SW 900 = test system: SW 900
In short: as §1

NCI-H1563 = test system: NCI-H1563
In short: as §1

**Q.** How did the relative viability (A549; first compound 0.08 µM) turn out when `O=c1[nH]c2ccccc2n1C1CCN(CCCC(c2ccc(F)cc2)c2ccc(F)cc2)CC1` [Pimozide] + O=C(c1cc(Cc2n[nH]c(=O)c3ccccc23)ccc1F)N1CCN(C(=O)C2CC2)CC1 [Olaparib] (partner 8 µM) was run?
**A.** 0.237

**Q.** And the relative viability (A549; first compound 0.253 µM)?
**A.** 0.319

**Q.** And the relative viability (A549; first compound 0.8 µM)?
**A.** 0.271

**Q.** What about the relative viability (A549; first compound 2.53 µM) of the same compound?
**A.** 0.34

**Q.** What about the relative viability (A549; first compound 8 µM) of the same compound?
**A.** 0.347

**Q.** And the relative viability (Calu-6; first compound 0.08 µM)?
**A.** 0.651

**Q.** What about the relative viability (Calu-6; first compound 0.253 µM) of the same compound?
**A.** 0.568

**Q.** And the relative viability (Calu-6; first compound 0.8 µM)?
**A.** 0.597

**Q.** What about the relative viability (Calu-6; first compound 2.53 µM) of the same compound?
**A.** 0.575

**Q.** What about the relative viability (Calu-6; first compound 8 µM) of the same compound?
**A.** 0.425

**Q.** What about the relative viability (EBC-1; first compound 0.08 µM) of the same compound?
**A.** 0.651

**Q.** What about the relative viability (EBC-1; first compound 0.253 µM) of the same compound?
**A.** 0.695

**Q.** What about the relative viability (EBC-1; first compound 0.8 µM) of the same compound?
**A.** 0.723

**Q.** What about the relative viability (EBC-1; first compound 2.53 µM) of the same compound?
**A.** 0.626

**Q.** What about the relative viability (EBC-1; first compound 8 µM) of the same compound?
**A.** 0.676

**Q.** What about the relative viability (IA-LM; first compound 0.08 µM) of the same compound?
**A.** 0.84

**Q.** What about the relative viability (IA-LM; first compound 0.253 µM) of the same compound?
**A.** 0.737

**Q.** And the relative viability (IA-LM; first compound 0.8 µM)?
**A.** 0.873

**Q.** And the relative viability (IA-LM; first compound 2.53 µM)?
**A.** 0.82

**Q.** What about the relative viability (IA-LM; first compound 8 µM) of the same compound?
**A.** 0.812

**Q.** What about the relative viability (NCI-H1299; first compound 0.08 µM) of the same compound?
**A.** 0.983

**Q.** And the relative viability (NCI-H1299; first compound 0.253 µM)?
**A.** 0.973

**Q.** And the relative viability (NCI-H1299; first compound 0.8 µM)?
**A.** 0.931

**Q.** And the relative viability (NCI-H1299; first compound 2.53 µM)?
**A.** 0.948

**Q.** And the relative viability (NCI-H1299; first compound 8 µM)?
**A.** 0.898

**Q.** And the relative viability (NCI-H1648; first compound 0.08 µM)?
**A.** 0.805

**Q.** What about the relative viability (NCI-H1648; first compound 0.8 µM) of the same compound?
**A.** 0.522

**Q.** And the relative viability (NCI-H1648; first compound 2.53 µM)?
**A.** 0.619

**Q.** What about the relative viability (NCI-H1648; first compound 8 µM) of the same compound?
**A.** 1.1

**Q.** What about the relative viability (NCI-H1703; first compound 0.08 µM) of the same compound?
**A.** 0.352

**Q.** What about the relative viability (NCI-H1703; first compound 0.253 µM) of the same compound?
**A.** 0.324

**Q.** And the relative viability (NCI-H1703; first compound 0.8 µM)?
**A.** 0.374

**Q.** And the relative viability (NCI-H1703; first compound 2.53 µM)?
**A.** 0.439

**Q.** What about the relative viability (NCI-H1703; first compound 8 µM) of the same compound?
**A.** 0.341

**Q.** And the relative viability (NCI-H2342; first compound 0.08 µM)?
**A.** 0.438

**Q.** What about the relative viability (NCI-H2342; first compound 0.253 µM) of the same compound?
**A.** 0.355

**Q.** What about the relative viability (NCI-H2342; first compound 0.8 µM) of the same compound?
**A.** 0.397

**Q.** And the relative viability (NCI-H2342; first compound 2.53 µM)?
**A.** 0.403

**Q.** What about the relative viability (NCI-H2342; first compound 8 µM) of the same compound?
**A.** 0.411

**Q.** And the relative viability (NCI-H522; first compound 0.08 µM)?
**A.** 0.569

**Q.** And the relative viability (NCI-H522; first compound 0.253 µM)?
**A.** 0.54

**Q.** And the relative viability (NCI-H522; first compound 0.8 µM)?
**A.** 0.751

**Q.** What about the relative viability (NCI-H522; first compound 2.53 µM) of the same compound?
**A.** 0.592

**Q.** What about the relative viability (NCI-H522; first compound 8 µM) of the same compound?
**A.** 0.72

**Q.** What about the relative viability (SW 900; first compound 0.08 µM) of the same compound?
**A.** 0.955

**Q.** And the relative viability (SW 900; first compound 0.253 µM)?
**A.** 0.893

**Q.** And the relative viability (SW 900; first compound 2.53 µM)?
**A.** 0.839

**Q.** And the relative viability (SW 900; first compound 8 µM)?
**A.** 0.892

**Q.** Which relative viability (NCI-H1648; first compound 5 µM) does the source give for `O=C(O)CCCCC(CCSCc1ccccc1)SCc1ccccc1` (stereo unspecified) [CPI-613] + CC(=O)c1c(C)c2cnc(Nc3ccc(N4CCNCC4)cn3)nc2n(C2CCCC2)c1=O [Palbociclib] (partner 0.5 µM) here?
**A.** 0.285

**Q.** And the relative viability (NCI-H1648; first compound 15.81 µM)?
**A.** 0.302

**Q.** What about the relative viability (NCI-H1648; first compound 50 µM) of the same compound?
**A.** 0.299

**Q.** What about the relative viability (NCI-H1648; first compound 158.11 µM) of the same compound?
**A.** 0.192

**Q.** And the relative viability (NCI-H1648; first compound 500 µM)?
**A.** 0.128

**Q.** What about the relative viability (NCI-H2342; first compound 5 µM) of the same compound?
**A.** 0.497

**Q.** What about the relative viability (NCI-H2342; first compound 15.81 µM) of the same compound?
**A.** 0.536

**Q.** And the relative viability (NCI-H2342; first compound 50 µM)?
**A.** 0.492

**Q.** What about the relative viability (NCI-H2342; first compound 158.11 µM) of the same compound?
**A.** 0.52

**Q.** And the relative viability (NCI-H2342; first compound 500 µM)?
**A.** 0.588

**Q.** What about the relative viability (NCI-H522; first compound 5 µM) of the same compound?
**A.** 1.03

**Q.** And the relative viability (NCI-H522; first compound 15.81 µM)?
**A.** 1.13

**Q.** And the relative viability (NCI-H522; first compound 50 µM)?
**A.** 1.08

**Q.** What about the relative viability (NCI-H522; first compound 158.11 µM) of the same compound?
**A.** 0.708

**Q.** What about the relative viability (NCI-H522; first compound 500 µM) of the same compound?
**A.** 0.301

**Q.** And the relative viability (SW 900; first compound 5 µM)?
**A.** 0.57

**Q.** What about the relative viability (SW 900; first compound 50 µM) of the same compound?
**A.** 0.557

**Q.** And the relative viability (SW 900; first compound 158.11 µM)?
**A.** 0.208

**Q.** And the relative viability (SW 900; first compound 500 µM)?
**A.** 0.0276

**Q.** Which results are given for `Cc1cnc(-c2cnc(NCCNc3ccc(C#N)cn3)nc2-c2ccc(Cl)cc2Cl)[nH]1` + Nc1nc2[nH]cc(CCc3ccc(C(=O)N[C@@H](CCC(=O)O)C(=O)O)cc3)c2c(=O)[nH]1 [Pemetrexed] (partner 0.2 µM)?
**A.** relative viability (NCI-H1563; first compound 0.08 µM): 0.746; relative viability (NCI-H1563; first compound 0.253 µM): 0.805; relative viability (NCI-H1563; first compound 0.8 µM): 0.768; relative viability (NCI-H1563; first compound 2.53 µM): 0.722; relative viability (NCI-H1648; first compound 0.08 µM): 0.545; relative viability (NCI-H1648; first compound 0.253 µM): 0.723; relative viability (NCI-H1648; first compound 0.8 µM): 0.703; relative viability (NCI-H1648; first compound 2.53 µM): 0.653; relative viability (NCI-H2342; first compound 0.08 µM): 0.823; relative viability (NCI-H2342; first compound 0.253 µM): 0.633; relative viability (NCI-H2342; first compound 0.8 µM): 0.721; relative viability (NCI-H2342; first compound 2.53 µM): 0.736; relative viability (NCI-H522; first compound 0.08 µM): 1.08; relative viability (NCI-H522; first compound 0.253 µM): 1.03; relative viability (NCI-H522; first compound 0.8 µM): 0.97; relative viability (NCI-H522; first compound 2.53 µM): 1.07; relative viability (SW 900; first compound 0.08 µM): 0.501; relative viability (SW 900; first compound 0.253 µM): 0.487; relative viability (SW 900; first compound 0.8 µM): 0.478; relative viability (SW 900; first compound 2.53 µM): 0.438

**Q.** Which results are given for `Cc1cnc(-c2cnc(NCCNc3ccc(C#N)cn3)nc2-c2ccc(Cl)cc2Cl)[nH]1` + O=C(CCCCCCC(=O)Nc1ccccc1)NO [Vorinostat] (partner 1 µM)?
**A.** relative viability (IA-LM; first compound 0.08 µM): 1.16; relative viability (IA-LM; first compound 0.8 µM): 0.973; relative viability (IA-LM; first compound 2.53 µM): 0.888; relative viability (NCI-H1648; first compound 0.08 µM): 0.718; relative viability (NCI-H1648; first compound 0.253 µM): 0.516; relative viability (NCI-H1648; first compound 0.8 µM): 0.241; relative viability (NCI-H1648; first compound 2.53 µM): 0.327; relative viability (NCI-H2342; first compound 0.08 µM): 0.753; relative viability (NCI-H2342; first compound 0.253 µM): 0.685; relative viability (NCI-H2342; first compound 0.8 µM): 0.838; relative viability (NCI-H2342; first compound 2.53 µM): 0.648; relative viability (NCI-H522; first compound 0.08 µM): 1.01; relative viability (NCI-H522; first compound 0.253 µM): 0.947; relative viability (NCI-H522; first compound 0.8 µM): 0.958; relative viability (NCI-H522; first compound 2.53 µM): 0.842; relative viability (SW 900; first compound 0.08 µM): 0.381; relative viability (SW 900; first compound 0.253 µM): 0.49; relative viability (SW 900; first compound 0.8 µM): 0.519; relative viability (SW 900; first compound 2.53 µM): 0.472
